From patent publication US9789110B2, “Diacylglycerol acyltransferase 2 inhibitors” (PFIZER INC., priority 2014, dated 2017)
pIC50: −log10 of the molar value. Like-named read-outs stand apart in the source and are kept apart here.

Assays:
hDGAT2 = hDGAT2 (Homo sapiens (Human), UniProt Q96PD7); assay: In vitro DGAT2 assay, hDGAT2 membrane fraction, [14C]decanoyl-CoA scintillation readout; format: biochemical; conditions: geometric mean; FLAG-hDGAT2 membrane fraction; 2 h preincubation; read-out: IC50 for inhibition of DGAT2
Method: Recombinant baculovirus for the FLAG-tagged hDGAT2 was generated in SF9 insect cells using Bac-to-Bac baculovirus expression system (Invitrogen) according to the manufacturer's protocol. For the expression of hDGAT2, SF9 cells (20 L) grown in Sf90011 media were infected with hDGAT2 baculovirus at a multiplicity of infection of 1 in a Wave Bioreactor System 20/50P wave bag (GE Healthcare). After 40 hours of infection, the cells were then harvested by centrifugation at 5,000×g. The cell pellets were washed by resuspending in phosphate buffered saline (PBS) and collected by centrifugation at 5,000×g. The cell paste was flash frozen in liquid N2 and stored at −80° C. until needed. All operations below were at 4° C. unless otherwise noted. The cells were resuspended in lysis buffer (50 mM Tris-HCl, pH 8.0, 250 mM sucrose) including 1 mM ethylenediaminetetraacetic acid (EDTA) and the complete protease inhibitor cocktail (Roche Diagnostics) at a ratio of 3 ml buffer per 1 g cell paste. The cells were lysed by dounce homogenizer. The cell debris was removed by centrifugation at 1,000×g for 20 min, and the supernatant was centrifuged at 100,000×g for 1 hour. The resulting pellet was rinsed three times by filling ultracentrifuge tubes to the top with ice cold PBS before decanting. The washed pellet was resuspended with gentle stirring for 1 hour in lysis buffer containing 8 mM 3-[(3-cholamidopropyl)dimethylammonio]-1-propanesulfonate (CHAPS) at a ratio of 1 mL buffer per 1 g of original cell paste and centrifuged again at 100,000×g for 1 hour. The resulting supernatant was aliquotted, flash frozen in liquid N2, and stored at −80° C. until use.
For determination of IC50 values, the reactions were carried out in 384-well white Polyplates (Perkin Elmer) in a total volume of 20 μL. To […] compounds dissolved in 100% DMSO and spotted at the bottom of each well, 5 μL of 0.04% bovine serum albumin (BSA) (fatty acid free, Sigma Aldrich) was added and the mixture was incubated at room temperature for 20 minutes. To this mixture, 10 μL of hDGAT2 membrane fraction (0.01 mg/mL) diluted in 100 mM Hepes-NaOH, pH 7.4, 20 mM MgCl2 containing 200 nM methyl arachidonyl fluorophosphonate (Cayman Chemical; dried from ethyl acetate stock solution under argon gas and dissolved in DMSO as 5 mM stock) was added. After this mixture was preincubated at room temperature for 2 hours, DGAT2 reactions were initiated by the addition of 4 μL of substrates containing 30 μM [1-^14C]decanoyl-CoA (custom-synthesized by Perkin Elmer, 50 mCi/mmol) and 125 μM 1,2-didecanoyl-sn-glycerol (Avanti Polar Lipids) dissolved in 12.5% acetone. The reaction mixtures were incubated at room temperature for 40 min and the reactions were stopped by addition of 5 μL of 1% H3PO4. After the addition of 45 μL MicroScint-E (Perkin-Elmer), plates were sealed with Top Seal-A covers (Perkin-Elmer) and phase partitioning of substrates and products was achieved using a HT-91100 microplate orbital shaker (Big Bear Automation, Santa Clara, Calif.). Plates were centrifuged at 2,000×g for 1 min in an Allegra 6R Centrifuge (Beckman Coulter) and then were sealed again with fresh covers before reading in a 1450 Microbeta Wallac Trilux Scintillation Counter (Perkin Elmer). DGAT2 activity was measured by quantifying the generated product [^14C]tridecanoylglycerol in the upper organic phase.
Inhibitors were tested at eleven different concentrations to generate IC50 values for each compound.

[1] = target: DGAT2 in primary human hepatocytes (Homo sapiens (Human), UniProt Q96PD7); assay: IC50 for DGAT2 inhibitors in human hepatocytes, [14C]-glycerol incorporation into lipids; format: cell-based
Method: For evaluation of the effects of DGAT2 inhibitors in a cell-based setting, cryopreserved human hepatocytes (Lot QOC and NON, Celsis, Chicago, Ill.) were thawed and plated onto type I collagen-coated plates according to the manufacturer's instructions. After 24 hours overnight recovery period, the cells were overlayed with media containing 250 μg/ml Matrigel (BD Biosciences, San Jose, Calif.). The following day, media was aspirated and replaced with serum-free Williams Media E (Life Technologies, Grand Island, N.Y.) containing 400 μM sodium dodecanoate (Sigma-Aldrich, St. Louis, Mo.). Forty minutes later, DGAT2 inhibitors (prepared as 100× stocks in 25% DMSO, 75% Williams' Media E) were added to the desired final concentration. […] After a 20 minute preincubation, 0.2 μCi [1,3-^14C]-glycerol glycerol (American Radio Chemicals, St. Louis, Mo.) was added to each well and mixed by gentle pipetting prior to a 3 hour incubation. At this point, media was aspirated and the cells were lysed in isopropyl alcohol: tetrahydrofuran (9:1) prior to centrifugation at 3000 rpm for 5 minutes. Radiolabeled lipids were resolved using a 2-solvent system by thin layer chromatography using standard technique (solvent 1 contained ethyl acetate:isopropyl alcohol:chloroform:methanol:0.25% potassium chloride in water (100:100:100:40.2:36.1, v/v/v/v) and solvent 2 contained hexane: diethyl ether: acetic acid (70:27:3, v/v/v)). After separation, radiolabeled lipids were visualized using a Molecular Dynamics' PhosphorImager system. The half maximal inhibitory concentrations (IC50 values) were determined using GraphPad Prism (GraphPad Software, Inc., La Jolla, Calif.).
Table 4 below provides IC50 values for the Examples in accordance with the above-described assay. Results were reported as average IC50 values, low and high IC50 range (95% confidence interval).

[2] = average, cryopreserved human hepatocytes, selective DGAT1 inhibitor 3 μM in all wells, 3 hour incubation, read-out: IC50 in primary human hepatocytes

DGAT2 in primary human hepatocytes, sequence (Q96PD7 whole entry): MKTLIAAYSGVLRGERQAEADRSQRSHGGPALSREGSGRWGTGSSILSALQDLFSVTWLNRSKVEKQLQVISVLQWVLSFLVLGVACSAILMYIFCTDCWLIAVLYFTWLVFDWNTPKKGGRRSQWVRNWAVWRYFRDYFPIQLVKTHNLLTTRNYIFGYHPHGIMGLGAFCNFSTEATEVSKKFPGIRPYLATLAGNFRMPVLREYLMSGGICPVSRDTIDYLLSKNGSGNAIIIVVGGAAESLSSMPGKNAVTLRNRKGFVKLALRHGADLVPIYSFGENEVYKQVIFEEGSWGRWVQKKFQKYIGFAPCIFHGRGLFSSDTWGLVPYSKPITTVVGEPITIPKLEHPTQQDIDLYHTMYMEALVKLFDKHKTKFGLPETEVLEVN
hDGAT2, sequence (Q96PD7 whole entry): as above

| pIC50 (hDGAT2) | pIC50 [1, 2] | SMILES | pIC50 [1] |
| --- | --- | --- | --- |
| 7.34 | 7.68 | CCOc1ccccc1O[C@@H]1CCCN(c2ncc(C(=O)NCc3ccc(C(=O)O)cc3C)cn2)C1 [Example 13, (R)-4-((2-(3-(2-ethoxyphenoxy)piperidin-1-yl)pyrimidine-5-carboxamido)methyl)-3-methylbenzoic acid] |  |
| 7.46 | 8.18 | CCNC(=O)c1cnc(N2CCC[C@@H](Oc3ccccc3OCC)C2)nc1 [Example 4, (R)-2-(3-(2-ethoxyphenoxy)piperidin-1-yl)-N-ethylpyrimidine-5-carboxamide] |  |
| 6.83 | 7.72 | CCOc1ccccc1O[C@@H]1CCCN(c2ccc(C(=O)NCc3cccc(C(=O)O)c3)cn2)C1 [Example 7, (R)-3-((6-(3-(2-ethoxyphenoxy)piperidin-1-yl)nicotinamido)methyl)benzoic acid] |  |
| 8.62 | 7.10 | CCOc1ccccc1O[C@@H]1CCCN(c2ncc(C(=O)NCc3ccc(C(C)C(=O)O)cc3)cn2)C1 (single isomer, unassigned) [Example 15] |  |
| 7.06 | 7.98 | CCOc1ccccc1O[C@@H]1CCCN(c2ncc(C(=O)NCc3cc(C(=O)O)ccc3F)cn2)C1 [Example 10, (R)-3-((2-(3-(2-ethoxyphenoxy)piperidin-1-yl)pyrimidine-5-carboxamido)methyl)-4-fluorobenzoic acid] |  |
| 6.91 | 8.17 | CCOc1ccccc1O[C@@H]1CCCN(c2ncc(C(=O)NCc3cc(C(=O)O)ccc3OC)cn2)C1 [Example 11, (R)-3-((2-(3-(2-ethoxyphenoxy)piperidin-1-yl)pyrimidine-5-carboxamido)methyl)-4-methoxybenzoic acid] |  |
| 7.05 | 7.53 | CCOc1ccccc1O[C@@H]1CCCN(c2ncc(C(=O)N[C@H](C)c3cccc(C(=O)O)c3)cn2)C1 [Example 3, 3-((R)-1-(2-((R)-3-(2-ethoxyphenoxy)piperidin-1-yl)pyrimidine-5-carboxamido)ethyl)benzoic acid] |  |
| 7.18 | 8.08 | CCOc1ccccc1O[C@@H]1CCCN(c2ncc(C(=O)N[C@H]3CCC[C@H]3C(=O)O)cc2F)C1 [Example 5, (1R,2S)-2-(6-((R)-3-(2-ethoxyphenoxy)piperidin-1-yl)-5-fluoronicotinamido)cyclopentane-1-carboxylic acid] |  |
| 6.91 | 7.94 | CCOc1ccccc1O[C@@H]1CCCN(c2ncc(C(=O)NCc3cc(OC)cc(C(=O)O)c3)cn2)C1 [Example 2, (R)-3-((2-(3-(2-ethoxyphenoxy)piperidin-1-yl)pyrimidine-5-carboxamido)methyl)-5-methoxybenzoic acid] |  |
| 6.74 | 6.30 | CCOc1ccccc1O[C@@H]1CCCN(c2ncc(C(=O)NCc3ccccc3CC(=O)O)cn2)C1 [Example 18.3, (R)-2-(2-((2-(3-(2-ethoxyphenoxy)piperidin-1-yl)pyrimidine-5-carboxamido)methyl)phenyl)acetic acid] |  |
| 7.21 | 7.17 | CCOc1ccccc1O[C@@H]1CCCN(c2ncc(C(=O)NCc3cc(C(=O)O)cnc3C)cn2)C1 [Example 12, (R)-5-((2-(3-(2-ethoxyphenoxy)piperidin-1-yl)pyrimidine-5-carboxamido)methyl)-6-methylnicotinic acid] |  |
| 7.53 | 7.42 | CCOc1ccccc1O[C@@H]1CCCN(c2ncc(C(=O)NCCc3cn[nH]c3O)cn2)C1 [Example 20.8, (R)-2-(3-(2-ethoxyphenoxy)piperidin-1-yl)-N-(2-(5-hydroxy-1H-pyrazol-4-yl)ethyl)pyrimidine-5-carboxamide] |  |
| 6.81 | 7.34 | CCOc1ccccc1O[C@@H]1CCCN(c2ncc(C(=O)NCc3cccc(CC(=O)O)c3)cn2)C1 [Example 18.2, (R)-2-(3-((2-(3-(2-ethoxyphenoxy)piperidin-1-yl)pyrimidine-5-carboxamido)methyl)phenyl)acetic acid] |  |
| 8.01 | 7.29 | CCOc1ccccc1O[C@@H]1CCCN(c2ncc(C(=O)NCc3ccnc(C(=O)O)c3)cc2F)C1 [Example 8, (R)-4-((6-(3-(2-ethoxyphenoxy)piperidin-1-yl)-5-fluoronicotinamido)methyl)picolinic acid] |  |
| 7.17 | 7.09 | CCOc1ccccc1O[C@@H]1CCCN(c2ncc(C(=O)NCc3nc(=O)[nH][nH]3)cn2)C1 [Example 20.5, (R)-2-(3-(2-ethoxyphenoxy)piperidin-1-yl)-N-((5-oxo-2,5-dihydro-1H-1,2,4-triazol-3-yl)methyl)pyrimidine-5-carboxamide] |  |
| 6.78 | 6.94 | CCOc1ccccc1O[C@@H]1CCCN(c2ncc(C(=O)NCc3ccc(C(=O)O)cc3)cn2)C1 [Example 18.1, (R)-4-((2-(3-(2-ethoxyphenoxy)piperidin-1-yl)pyrimidine-5-carboxamido)methyl)benzoic acid] |  |
| 7.04 | 7.95 | CCOc1ccccc1O[C@@H]1CCCN(c2ncc(C(=O)NCc3cccc(C(=O)O)c3)cn2)C1 [Example 1, (R)-3-((2-(3-(2-ethoxyphenoxy)piperidin-1-yl)pyrimidine-5-carboxamido)methyl)benzoic acid] |  |
| 6.77 | 7.22 | CCOc1ccccc1O[C@@H]1CCCN(c2ncc(C(=O)N3CC[C@H]3C(N)=O)cn2)C1 [Example 20.10, (S)-1-(2-((R)-3-(2-ethoxyphenoxy)piperidin-1-yl)pyrimidine-5-carbonyl)azetidine-2-carboxamide] |  |
| 8.37 |  | CCOc1ccccc1O[C@@H]1CCCN(c2ncc(C(=O)NCc3ccccc3)cn2)C1 [Example 19.7, (R)-N-benzyl-2-(3-(2-ethoxyphenoxy)piperidin-1-yl)pyrimidine-5-carboxamide] |  |
| 7.91 |  | CCOc1ccccc1O[C@@H]1CCCN(c2ncc(C(=O)NC(C)(C)CC(N)=O)cn2)C1 [Example 19.17, (R)-N-(4-amino-2-methyl-4-oxobutan-2-yl)-2-(3-(2-ethoxyphenoxy)piperidin-1-yl)pyrimidine-5-carboxamide] |  |

| SMILES | pIC50 (hDGAT2) | pIC50 [1, 2] | pIC50 [1] |
| --- | --- | --- | --- |
| CCOc1ccccc1O[C@@H]1CCCN(c2ncc(C(=O)NCc3cc(O)no3)cn2)C1 [Example 19.2, (R)-2-(3-(2-ethoxyphenoxy)piperidin-1-yl)-N-((3-hydroxyisoxazol-5-yl)methyl)pyrimidine-5-carboxamide] | 6.58 |  | 6.47 |
